Experimental data from patent publication US20230104487A1, “11-(4-CHLOROPHENYL)-4-(2,3-DIHYDRO-1H-INDOLE-1-CARBONYL)-3,11-DIMETHYL-5,10,DIOXATRICYCLO[7.4.0.0,2,6,]TRIDECA-1,3,6,8-TETRAEN-13-ONE AND DERIVATIVES AS DESTABILIZER OF CRY1 FOR THE TREATMENT OF CIRCADIAN RHYTHM ASSOCIATED DISEASES AND DISORDERS” (KOC UNIVERSITESI, priority 2019, published 2023).
Entries after “also recorded” stand apart in the source; their conditions may differ.

Experiments:
[1] = test system: C57BL/6J mice; assay: Repeated dose toxicity study, 14-day subacute toxicity; type: in vivo; conditions: 60 mg/kg i.p. for 14 days
Method: According to the results of the 5-day maximum tolerated dose determination study, FORMULA I dose was determined as 60 mg/kg for the next 14-day subacute toxicity study. In this study, C57BL/6J mice (n=10) were treated with 60 mg/kg dose of FORMULA I intraperitoneally for 14 days. Control mice (n=5) were only treated with vehicle. Following this, aforementioned procedure (5-day maximum tolerated dose determination study) has been conducted in the same way.

[2] = test system: Dbp, Cry1, Cry2, Per2 mRNA; assay: RT-qPCR of clock genes, synchronized U2-OS cells; type: cell-based, human; conditions: 10 μM, 72-92 h
Method: FIGS. 3A-3G are an illustration of FORMULA I decreased CRY1 level in synchronized U2-OS cells. Confluent U2-OS cells were synchronized by 2 h treatment with dexamethasone ([…]) and medium replaced with fresh medium containing FORMULA I or solvent (DMSO final 0.5%). Cells were harvested at indicated time points. FIGS. 3A-3B show lysed cells were analyzed via protein immunoblot technique. […] CRY levels in DMSO control divided by that of in FORMULA I treated samples were reported (mean±SEM, n=4). FIGS. 3C-3G show cells were subjected to reverse-transcription-quantitative polymerase chain reaction (RT-qPCR). […] Expression level of genes was normalized according to the expression level of that gene at 72ndh. (Data represent the mean±SEM, n=3 with duplicates ***: p<0.001 **: p<0.005, *: p<0.05 versus DMSO control by two-way ANOVA).
QIAGEN RNeasy Mini Kit was used to isolate the mRNA. Protocol provided by the manufacturer was followed. […] Quantity of RNA was determined by Nanodrop 2000 (Thermo Scientific). […] For quantitative real time PCR (qRT-PCR) analysis cDNAs were further diluted 5-fold (1:5). mRNA expression levels were calculated by qRT-PCR with the SYBR Green. […] 10 seconds denaturation, 57 to 62° C. for 20 seconds annealing (the degree is determined by primer type) and 72° C. for 30 seconds of elongation, 35 cycles. […]

`Cc1c(C(=O)N2CCc3ccccc32)oc2ccc3c(c12)C(=O)CC(C)(c1ccc(Cl)cc1)O3` (stereo not shown) [FORMULA I, 11-(4-chlorophenyl)-4-(2,3-dihydro-1H-indole-1-carbonyl)-3,11-dimethyl-5,10,dioxatricyclo[7.4.0.0,2,6,]trideca-1,3,6,8-tetraen-13-one] was tested, and the “body temperature (mild hypothermia)” value ([1]; during injections) was 33.7-35.4 °C, the “highest mean body weight loss” value ([1]; first day following administration) was 3.7% and the “Dbp and Per2 mRNA levels” value [2] was “Increase in clock output genes of the Dbp and Per2 mRNA levels; also recorded: increased the level of Dbp and Per2”. The “peak time and abundance of Cry1, Cry2 (and Dbp) mRNA” value [2] was “changed the peak time without significantly changing their overall abundance; also recorded: changed the peak time of Dbp, Cry1 and Cry2”.
